Source: patent US10259776B2, “Branched 3-phenylpropionic acid derivatives and their use” (BAYER INTELLECTUAL PROPERTY GMBH, priority 2011, dated 2019)

What was measured:
[1] = target: soluble guanylate cyclase (sGC) (Rattus norvegicus (Rat), UniProt P20595); assay: Stimulation of sGC enzyme activity (PPi detection, luciferase); type: biochemical; conditions: sGC enzyme in vitro
Procedure: Soluble guanylate cyclase (sGC) converts on stimulation GTP into cGMP and pyrophosphate (PPi). PPi is detected with the aid of the assay described below. The signal produced in the assay increases as the reaction progresses and serves as a measure of the sGC enzyme activity under the given stimulation.
To carry out the assay, 29 μl of enzyme solution [0-10 nM soluble guanylate cyclase (prepared according to Honicka et al., J. Mol. Med. 77, 14-23 (1999)) in 50 mM TEA, 2 mM MgCl2, 0.1% BSA (fraction V), 0.005% Brij®, pH 7.5] are initially introduced into a microplate, and 1 μl of the substance to be tested (as a serially diluted solution in DMSO) is added. The mixture is incubated at room temperature for 10 min. […] The enzyme reaction is started by adding 20 μl of substrate solution [1.25 mM guanosine 5′-triphosphate (Sigma) in 50 mM TEA, 2 mM MgCl2, 0.1% BSA (fraction V), 0.005% Brij®, pH 7.5] and measured continuously in a luminometer. The extent of the stimulation by the substance to be tested can be determined relative to the signal of the unstimulated reaction. […]

[2] = target: sGC in the CHO reporter cell (Rattus norvegicus (Rat), UniProt P20595); assay: Action at a recombinant guanylate cyclase reporter cell line; type: cell-based; conditions: CHO reporter cell in vitro
Procedure: The cellular action of the compounds according to the invention is determined at a recombinant guanylate cyclase reporter cell line, as described in F. Wunder et al., Anal. Biochem. 339, 104-112 (2005).

Sequence of sGC in the CHO reporter cell (P20595 whole entry): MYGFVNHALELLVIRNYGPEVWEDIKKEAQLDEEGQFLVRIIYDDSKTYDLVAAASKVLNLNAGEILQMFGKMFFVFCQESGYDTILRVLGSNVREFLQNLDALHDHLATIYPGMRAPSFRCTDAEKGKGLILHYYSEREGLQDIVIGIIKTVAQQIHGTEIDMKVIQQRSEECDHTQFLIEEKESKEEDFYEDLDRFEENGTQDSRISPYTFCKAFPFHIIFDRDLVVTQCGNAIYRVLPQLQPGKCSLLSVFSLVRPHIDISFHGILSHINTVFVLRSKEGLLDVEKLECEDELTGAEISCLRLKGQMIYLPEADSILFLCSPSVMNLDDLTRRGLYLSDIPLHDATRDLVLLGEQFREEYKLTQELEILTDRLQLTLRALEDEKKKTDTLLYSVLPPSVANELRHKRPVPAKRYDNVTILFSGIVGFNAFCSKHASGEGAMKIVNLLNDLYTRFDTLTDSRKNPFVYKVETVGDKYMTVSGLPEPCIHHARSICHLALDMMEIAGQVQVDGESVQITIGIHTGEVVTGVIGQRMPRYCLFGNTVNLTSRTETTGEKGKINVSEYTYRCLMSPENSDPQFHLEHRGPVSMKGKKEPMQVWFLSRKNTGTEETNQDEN
Sequence of sGC in the CHO reporter cell (P19686 whole entry partner): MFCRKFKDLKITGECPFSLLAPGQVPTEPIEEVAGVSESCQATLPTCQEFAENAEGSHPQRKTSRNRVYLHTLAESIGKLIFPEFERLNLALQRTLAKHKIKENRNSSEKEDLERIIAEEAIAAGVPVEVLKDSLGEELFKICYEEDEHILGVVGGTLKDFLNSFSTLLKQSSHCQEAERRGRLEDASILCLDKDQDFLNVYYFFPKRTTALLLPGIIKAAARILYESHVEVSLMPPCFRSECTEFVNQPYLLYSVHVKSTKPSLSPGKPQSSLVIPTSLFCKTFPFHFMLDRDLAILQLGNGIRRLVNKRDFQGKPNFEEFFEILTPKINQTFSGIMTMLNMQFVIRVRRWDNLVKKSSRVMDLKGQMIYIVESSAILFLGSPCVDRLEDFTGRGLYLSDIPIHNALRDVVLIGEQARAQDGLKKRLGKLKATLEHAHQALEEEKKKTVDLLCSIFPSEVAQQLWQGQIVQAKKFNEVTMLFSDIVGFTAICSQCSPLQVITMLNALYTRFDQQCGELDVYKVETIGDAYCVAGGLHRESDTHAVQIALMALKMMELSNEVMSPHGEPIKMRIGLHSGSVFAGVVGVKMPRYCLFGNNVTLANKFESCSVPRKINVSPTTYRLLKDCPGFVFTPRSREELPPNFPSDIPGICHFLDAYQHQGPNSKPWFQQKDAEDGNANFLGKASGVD
Sequence of soluble guanylate cyclase (sGC) (P20595 whole entry): as the sequence (P20595 whole entry) above
Sequence of soluble guanylate cyclase (sGC) (P19686 whole entry partner): as the sequence (P19686 whole entry partner) above

Compound: CC(C(=O)O)C(c1ccc(Cl)c(NC(=O)C(c2ccc(Cl)cc2)[C@@H](C)C(F)(F)F)c1)C1CC1 (stereo partly drawn) [Example 30, 3-(4-Chloro-3-{[(3R)-2-(4-chlorophenyl)-4,4,4-trifluoro-3-methylbutanoyl]amino}phenyl)-3-cyclopropyl-2-methylpropanoic acid]
- MEC (minimum effective concentration), activating action at the sGC enzyme [1]: 17 nM
- MEC (minimum effective concentration), sGC-activating activity in the CHO reporter cell [2]: 10 nM
